Target: T1, c-Met kinase (recombinant c-Met) (Homo sapiens, UniProt P08581)
T1 construct: 0.27 nM recombinant c-Met
Assay: In vitro kinase assay I (homogeneous time-resolved fluorescence tyrosine kinase assay)
Format: biochemical
Outline: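 Biotinylated peptide (0.5 μM) phosphorylated by 0.2 nM recombinant c-Met with 50 μM MgATP, 60 min at room temperature, pH 7.4, 5% DMSO. EDTA stop; HTRF read with Eu-anti-phosphotyrosine antibody and streptavidin-APC. IC50 from 4-parameter logistic fit.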

T1 sequence (P08581 25-1390): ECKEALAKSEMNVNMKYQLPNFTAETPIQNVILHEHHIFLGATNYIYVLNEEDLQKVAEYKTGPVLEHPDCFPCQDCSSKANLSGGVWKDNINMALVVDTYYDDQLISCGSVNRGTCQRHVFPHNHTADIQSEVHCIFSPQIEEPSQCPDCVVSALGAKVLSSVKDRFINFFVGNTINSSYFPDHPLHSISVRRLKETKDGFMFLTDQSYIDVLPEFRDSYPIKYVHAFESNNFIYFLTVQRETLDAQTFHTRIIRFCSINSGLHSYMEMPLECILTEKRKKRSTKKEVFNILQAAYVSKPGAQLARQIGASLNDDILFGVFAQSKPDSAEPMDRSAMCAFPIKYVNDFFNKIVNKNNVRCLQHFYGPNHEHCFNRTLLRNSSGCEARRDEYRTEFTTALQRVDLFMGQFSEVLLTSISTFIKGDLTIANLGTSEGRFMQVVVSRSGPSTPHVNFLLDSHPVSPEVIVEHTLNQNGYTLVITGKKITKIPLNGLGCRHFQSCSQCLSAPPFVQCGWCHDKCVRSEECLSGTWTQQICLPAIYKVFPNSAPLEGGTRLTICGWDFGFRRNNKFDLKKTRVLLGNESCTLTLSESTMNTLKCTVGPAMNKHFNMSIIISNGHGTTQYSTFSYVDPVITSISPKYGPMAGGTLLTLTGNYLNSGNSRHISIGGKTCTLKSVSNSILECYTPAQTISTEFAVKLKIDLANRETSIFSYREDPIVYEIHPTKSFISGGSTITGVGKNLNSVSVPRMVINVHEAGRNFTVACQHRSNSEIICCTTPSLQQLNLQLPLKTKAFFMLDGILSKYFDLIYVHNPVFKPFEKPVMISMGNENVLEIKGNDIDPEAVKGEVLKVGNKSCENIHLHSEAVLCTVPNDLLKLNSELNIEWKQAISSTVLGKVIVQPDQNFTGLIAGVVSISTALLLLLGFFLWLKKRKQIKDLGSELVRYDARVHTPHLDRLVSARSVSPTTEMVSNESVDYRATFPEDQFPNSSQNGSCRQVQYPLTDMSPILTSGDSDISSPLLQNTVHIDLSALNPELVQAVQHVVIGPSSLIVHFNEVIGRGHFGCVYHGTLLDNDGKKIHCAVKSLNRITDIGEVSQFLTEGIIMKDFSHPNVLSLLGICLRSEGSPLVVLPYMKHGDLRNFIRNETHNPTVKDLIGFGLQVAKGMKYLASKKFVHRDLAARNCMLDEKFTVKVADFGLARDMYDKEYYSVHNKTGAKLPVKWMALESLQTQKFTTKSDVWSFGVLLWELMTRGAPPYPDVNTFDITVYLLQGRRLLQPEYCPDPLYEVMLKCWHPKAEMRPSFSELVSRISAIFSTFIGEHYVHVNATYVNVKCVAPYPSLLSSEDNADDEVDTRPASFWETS

IC50, 0.1 to 1 µM:
Cc1noc(C)c1-c1cnc(-c2cccc(Cc3nn(-c4cnn(C)c4)ccc3=O)c2)nc1 [Example 424, 3-{3-[5-(3,5-dimethylisoxa-zol-4-yl)pyrimidin-2-yl]benzyl}-1-(1-methyl-1H-pyrazol-4-yl)pyridazin-4(1H)-one]
CNCc1cnc(-c2cccc(Cc3nn(-c4cnn(C)c4)ccc3=O)c2)nc1 [Example 427, 3-(3-{5-[(methylamino)methyl]pyrimidin-2-yl}benzyl)-1-(1-methyl-1H-pyrazol-4-yl)pyridazin-4(1H)-one]
Cn1cc(-n2ccc(=O)c(Cc3cccc(-c4ncc(CNC5CCCCC5)cn4)c3)n2)cn1 [Example 432, 3-(3-{5-[(cyclohexyl-amino)methyl]pyrimidin-2-yl}benzyl)-1-(1-methyl-1H-pyrazol-4-yl)pyridazin-4(1H)-one]

IC50, < 0.1 µM:
CCCCc1cnc(-c2cccc(Cc3nn(-c4cnn(C)c4)ccc3=O)c2)nc1 [Example 392, 3-[3-(5-butylpyrimidin-2-yl)benzyl]-1-(1-methyl-1H-pyrazol-4-yl)pyridazin-4(1H)-one]
Cn1cc(-n2ccc(=O)c(Cc3cccc(-c4ncc(C5CC5)cn4)c3)n2)cn1 [Example 393, 3-[3-(5-cyclopropyl-pyrimidin-2-yl)benzyl]-1-(1-methyl-1H-pyrazol-4-yl)pyridazin-4(1H)-one]
CC(C)Cc1cnc(-c2cccc(Cc3nn(-c4cnn(C)c4)ccc3=O)c2)nc1 [Example 394, 3-{3-[5-(2-methylpropyl)pyrimidin-2-yl)benzyl}-1-(1-methyl-1H-pyrazol-4-yl)pyridazin-4(1H)-one]
Cn1cc(-n2ccc(=O)c(Cc3cccc(-c4ncc(CCCO)cn4)c3)n2)cn1 [Example 395, 3-{3-[5-(3-hydroxypropyl)pyrimidin-2-yl]benzyl}-1-(1-methyl-1H-pyrazol-4-yl)pyridazin-4(1H)-one]
Cn1cc(-n2ccc(=O)c(Cc3cccc(-c4ncc(Cc5ccccc5)cn4)c3)n2)cn1 [Example 396]
Cn1cc(-n2ccc(=O)c(Cc3cccc(-c4ncc(CCc5ccccc5)cn4)c3)n2)cn1 [Example 397, 1-(1-methyl-1H-pyrazol-4-yl)-3-{3-[5-(2-phenylethyl)pyrimidin-2-yl]benzyl}pyridazin-4(1H)-one]
Cn1cc(-n2ccc(=O)c(Cc3cccc(-c4ncc(CCc5ccccn5)cn4)c3)n2)cn1 [Example 398, 1-(1-methyl-1H-pyrazol-4-yl)-3-(3-{5-[2-(pyridin-2-yl)ethyl]pyrimidin-2-yl}benzyl)pyridazin-4(1H)-one]
C=C(C)c1cnc(-c2cccc(Cc3nn(-c4cnn(C)c4)ccc3=O)c2)nc1 [Example 399, 1-(1-methyl-1H-pyrazol-4-yl)-3-{3-[5-(prop-1-en-2-yl)pyrimidin-2-yl]benzyl}pyridazin-4(1H)-one]
C/C=C/c1cnc(-c2cccc(Cc3nn(-c4cnn(C)c4)ccc3=O)c2)nc1 [Example 400, 1-(1-methyl-1H-pyrazol-4-yl)-3-(3-{5-[(1E)-prop-1-en-1-yl]pyrimidin-2-yl}benzyl)pyridazin-4(1H)-one]
Cn1cc(-n2ccc(=O)c(Cc3cccc(-c4ncc(/C=C/C(C)(C)O)cn4)c3)n2)cn1 [Example 401, 3-(3-{5-[(1E)-3-hydroxy-3-methylbut-1-en-1-yl]pyrimidin-2-yl}benzyl)-1-(1-methyl-1H-pyrazol-4-yl)pyridazin-4(1H)-one]
COC/C=C/c1cnc(-c2cccc(Cc3nn(-c4cnn(C)c4)ccc3=O)c2)nc1 [Example 402, 3-(3-{5-[(1E)-3-methoxyprop-1-en-1-yl]pyrimidin-2-yl}benzyl)-1-(1-methyl-1H-pyrazol-4-yl)pyridazin-4(1H)-one]
CN(C)C/C=C/c1cnc(-c2cccc(Cc3nn(-c4cnn(C)c4)ccc3=O)c2)nc1 [Example 403, 3-(3-{5-[(1E)-3-(dimethylamino)prop-1-en-1-yl]pyrimidin-2-yl}benzyl)-1-(1-methyl-1H-pyrazol-4-yl)pyridazin-4(1H)-one]
Cn1cc(-n2ccc(=O)c(Cc3cccc(-c4ncc(-c5ccco5)cn4)c3)n2)cn1 [Example 404, 3-{3-[5-(furan-2-yl)pyrimidin-2-yl]benzyl}-1-(1-methyl-1H-pyrazol-4-yl)pyridazin-4(1H)-one]
CCc1cnc(-c2cccc(Cc3nn(-c4ccc(F)c(F)c4)ccc3=O)c2)nc1 [Example 407, 1-(3,4-difluorophenyl)-3-[3-(5-ethylpyrimidin-2-yl)benzyl]pyridazin-4(1H)-one]
Cn1cc(-n2ccc(=O)c(Cc3cccc(-c4ncc(-c5ccncc5)cn4)c3)n2)cn1 [Example 409, 1-(1-Methyl-1H-pyrazol-4-yl)-3-{3-[5-(pyridin-4-yl)pyrimidin-2-yl]benzyl}pyridazin-4(1H)-one]
Cn1cc(-n2ccc(=O)c(Cc3cccc(-c4ncc(-c5cn[nH]c5)cn4)c3)n2)cn1 [Example 410, 1-(1-methyl-1H-pyrazol-4-yl)-3-{3-[5-(1H-pyrazol-4-yl)pyrimidin-2-yl]benzyl}pyridazin-4(1H)-one]
Cn1cc(-n2ccc(=O)c(Cc3cccc(-c4ncc(-c5cncnc5)cn4)c3)n2)cn1 [Example 411, 3-[3-(5,5′-bipyrimidin-2-yl)benzyl]-1-(1-methyl-1H-pyrazol-4-yl)pyridazin-4(1H)-one]
Cn1cc(-n2ccc(=O)c(Cc3cccc(-c4ncc(-c5cccnc5)cn4)c3)n2)cn1 [Example 412, 1-(1-methyl-1H-pyrazol-4-yl)-3-[3-(5-pyridin-3-ylpyrimidin-2-yl)benzyl]pyridazin-4(1H)-one]
Cn1cc(-n2ccc(=O)c(Cc3cccc(-c4ncc(-c5ccc(C#N)nc5)cn4)c3)n2)cn1 [Example 413, 5-[2-(3-{[1-(1-methyl-1H-pyrazol-4-yl)-4-oxo-1,4-dihydropyrida-zin-3-yl]methyl}phenyl)pyrimidin-5-yl]pyridine-2-carbonitrile]
Cn1cc(-n2ccc(=O)c(Cc3cccc(-c4ncc(-c5cncc(F)c5)cn4)c3)n2)cn1 [Example 414, 3-{3-[5-(5-fluoropyridin-3-yl)pyrimidin-2-yl]benzyl}-1-(1-methyl-1H-pyrazol-4-yl)pyridazin-4(1H)-one]
Cc1cnccc1-c1cnc(-c2cccc(Cc3nn(-c4cnn(C)c4)ccc3=O)c2)nc1 [Example 416, 1-(1-methyl-1H-pyrazol-4-yl)-3-{3-[5-(3-methylpyridin-4-yl)pyrimidin-2-yl]benzyl}pyridazin-4(1H)-one]
Cn1cc(-n2ccc(=O)c(Cc3cccc(-c4ncc(-c5cnc(N)nc5)cn4)c3)n2)cn1 [Example 417, 3-[3-(2′-amino-5,5′-bipyrimidin-2-yl)benzyl]-1-(1-methyl-1H-pyrazol-4-yl)pyridazin-4(1H)-one]
Cn1cc(-n2ccc(=O)c(Cc3cccc(-c4ncc(-c5ccc(F)cn5)cn4)c3)n2)cn1 [Example 418, 3-{3-[5-(5-fluoropyridin-2-yl)pyrimidin-2-yl]benzyl}-1-(1-methyl-1H-pyrazol-4-yl)pyridazin-4(1H)-one]
Cn1cc(-n2ccc(=O)c(Cc3cccc(-c4ncc(-c5ccc(N)nc5)cn4)c3)n2)cn1 [Example 419, 3-{3-[5-(6-aminopyridin-3-yl)pyrimidin-2-yl]benzyl}-1-(1-methyl-1H-pyrazol-4-yl)pyridazin-4(1H)-one]
Cn1cc(-n2ccc(=O)c(Cc3cccc(-c4ncc(-c5cc[nH]n5)cn4)c3)n2)cn1 [Example 420, 1-(1-methyl-1H-pyrazol-4-yl)-3-{3-[5-(1H-pyrazol-3-yl)pyrimidin-2-yl]benzyl}pyridazin-4(1H)-one]
Cn1cc(-n2ccc(=O)c(Cc3cccc(-c4ncc(-c5ccn(C)n5)cn4)c3)n2)cn1 [Example 421, 1-(1-methyl-1H-pyrazol-4-yl)-3-{3-[5-(1-melhyl-1H-pyrazol-3-yl)pyrimidin-2-yl]benzyl}pyridazin-4(1H)-one]
Cn1cc(-n2ccc(=O)c(Cc3cccc(-c4ncc(-c5cscn5)cn4)c3)n2)cn1 [Example 422, 1-(1-methyl-1H-pyrazol-4-yl)-3-{3-[5-(1,3-thiazol-4-yl)pyrimidin-2-yl]benzyl}pyridazin-4(1H)-one]
Cn1cc(-n2ccc(=O)c(Cc3cccc(-c4ncc(-c5cnoc5)cn4)c3)n2)cn1 [Example 423, 3-[3-(5-isoxazol-4-ylpyrimidin-2-yl)benzyl]-1-(1-methyl-1H-pyrazol-4-yl)pyridazin-4(1H)-one]
Cn1cc(-n2ccc(=O)c(Cc3cccc(-c4ncc(-c5ccnnc5)cn4)c3)n2)cn1 [Example 425, 1-(1-methyl-1H-pyrazol-4-yl)-3-[3-(5-pyridazin-4-ylpyrimidin-2-yl)benzyl]pyridazin-4(1H)-one]
Cn1cc(-n2ccc(=O)c(Cc3cccc(-c4ncc(CN5CCOCC5)cn4)c3)n2)cn1 [Example 426, 1-(1-Methyl-1H-pyrazol-4-yl)-3-{3-[5-(morpholin-4-ylmethyl)pyrimidin-2-yl]benzyl}pyridazin-4(1H)-one]
Cn1cc(-n2ccc(=O)c(Cc3cccc(-c4ncc(CN5CCSCC5)cn4)c3)n2)cn1 [Example 428, 1-(1-methyl-1H-pyrazol-4-yl)-3-{3-[5-(thiomorpholin-4-ylmethyl)pyrimidin-2-yl]benzyl}pyridazin-4(1H)-one]
Cn1cc(-n2ccc(=O)c(Cc3cccc(-c4ncc(CN5CCCC5)cn4)c3)n2)cn1 [Example 429, 1-(1-methyl-1H-pyrazol-4-yl)-3-{3-[5-(pyrrolidin-1-ylmethyl)pyrimidin-2-yl]benzyl}pyridazin-4(1H)-one]
CN(C)Cc1cnc(-c2cccc(Cc3nn(-c4cnn(C)c4)ccc3=O)c2)nc1 [Example 430, 3-(3-{5-[(dimethylamino)methyl]pyrimidin-2-yl}benzyl)-1-(1-methyl-1H-pyrazol-4-yl)pyridazin-4(1H)-one]
Cn1cc(-n2ccc(=O)c(Cc3cccc(-c4ncc(CN5CCNCC5)cn4)c3)n2)cn1 [Example 433]
